Source: paper PMC3145970, “Specific CLK Inhibitors from a Novel Chemotype for Regulation of Alternative Splicing” (Chemistry & Biology, 2011)
Where two headings read alike, the source gives them in different places.

Columns and labels:
Assay in all cases: Thermal stability shift assay
Type in all cases: binding
CK1g3 = CK1g3 (Homo sapiens, UniProt Q9Y6M4); conditions: read-out: Tm shift CK1g3
Description: (§1) Thermal denaturation experiments were carried out in an Mx3005p real-time PCR machine (Agilent) using a protein concentration of 2 μM and an inhibitor concentration of 10 μM. Samples were buffered in 10 mM HEPES (pH 7.5), 500 mM NaCl and a 1:1000 dilution of SyproOrange (Invitrogen).

CDK2 = CDK2 (Homo sapiens, UniProt P24941); conditions: read-out: Tm shift CDK2
Description: as §1

Erk1 = biological target: T1, Erk1 (Homo sapiens, UniProt P27361); conditions: read-out: Tm shift Erk1
T1 construct: purchased in-house (SGC Oxford thermal shift panel)
T1 sequence (P27361 whole entry): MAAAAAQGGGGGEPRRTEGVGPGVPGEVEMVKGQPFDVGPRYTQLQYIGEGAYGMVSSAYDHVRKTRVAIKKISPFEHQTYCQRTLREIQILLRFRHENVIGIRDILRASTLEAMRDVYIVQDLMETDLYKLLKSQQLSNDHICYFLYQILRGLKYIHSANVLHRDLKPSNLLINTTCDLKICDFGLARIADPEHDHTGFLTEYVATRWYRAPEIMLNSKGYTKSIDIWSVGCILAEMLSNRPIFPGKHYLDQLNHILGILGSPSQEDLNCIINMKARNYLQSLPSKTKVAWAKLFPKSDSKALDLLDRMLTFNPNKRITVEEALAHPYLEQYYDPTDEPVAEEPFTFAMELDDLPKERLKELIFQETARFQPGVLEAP
Description: as §1

PIM1 = PIM1 (Homo sapiens, UniProt P11309); conditions: read-out: Tm shift PIM1
PIM1, sequence (P11309 whole entry): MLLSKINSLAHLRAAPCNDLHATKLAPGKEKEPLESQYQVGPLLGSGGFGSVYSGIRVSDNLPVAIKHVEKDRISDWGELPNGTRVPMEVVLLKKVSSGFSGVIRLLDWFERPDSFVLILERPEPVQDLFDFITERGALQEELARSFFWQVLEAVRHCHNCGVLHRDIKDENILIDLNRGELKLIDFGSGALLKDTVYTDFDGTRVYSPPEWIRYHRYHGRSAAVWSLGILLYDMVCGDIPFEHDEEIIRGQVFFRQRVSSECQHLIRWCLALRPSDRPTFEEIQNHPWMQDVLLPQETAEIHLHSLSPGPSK
Description: as §1

NDR1 = biological target: T2, NDR1 (Homo sapiens, UniProt Q15208); conditions: read-out: Tm shift NDR1
T2 construct: purchased in-house (SGC Oxford thermal shift panel)
T2 sequence (Q15208 whole entry): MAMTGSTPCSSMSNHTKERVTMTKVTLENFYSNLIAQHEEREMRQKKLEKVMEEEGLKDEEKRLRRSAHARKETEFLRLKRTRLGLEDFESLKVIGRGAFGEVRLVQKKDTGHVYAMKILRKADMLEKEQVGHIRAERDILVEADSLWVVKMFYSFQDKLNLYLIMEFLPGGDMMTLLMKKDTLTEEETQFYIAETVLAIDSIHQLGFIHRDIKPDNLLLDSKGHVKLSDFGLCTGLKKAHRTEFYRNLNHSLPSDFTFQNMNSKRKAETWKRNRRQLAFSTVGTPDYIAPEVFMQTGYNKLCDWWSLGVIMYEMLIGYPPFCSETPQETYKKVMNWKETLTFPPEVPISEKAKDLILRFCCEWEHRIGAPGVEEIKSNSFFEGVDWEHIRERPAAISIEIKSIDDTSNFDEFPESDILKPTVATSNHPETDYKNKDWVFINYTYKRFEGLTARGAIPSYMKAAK
Description: as §1, with “(Invitrogen). The assay and data evaluation were carried out as described ([Bullock et al., 2005])” for “(Invitrogen).”

BMX = biological target: T3, BMX (Homo sapiens, UniProt P51813); conditions: read-out: Tm shift BMX
T3 sequence (P51813 1-675): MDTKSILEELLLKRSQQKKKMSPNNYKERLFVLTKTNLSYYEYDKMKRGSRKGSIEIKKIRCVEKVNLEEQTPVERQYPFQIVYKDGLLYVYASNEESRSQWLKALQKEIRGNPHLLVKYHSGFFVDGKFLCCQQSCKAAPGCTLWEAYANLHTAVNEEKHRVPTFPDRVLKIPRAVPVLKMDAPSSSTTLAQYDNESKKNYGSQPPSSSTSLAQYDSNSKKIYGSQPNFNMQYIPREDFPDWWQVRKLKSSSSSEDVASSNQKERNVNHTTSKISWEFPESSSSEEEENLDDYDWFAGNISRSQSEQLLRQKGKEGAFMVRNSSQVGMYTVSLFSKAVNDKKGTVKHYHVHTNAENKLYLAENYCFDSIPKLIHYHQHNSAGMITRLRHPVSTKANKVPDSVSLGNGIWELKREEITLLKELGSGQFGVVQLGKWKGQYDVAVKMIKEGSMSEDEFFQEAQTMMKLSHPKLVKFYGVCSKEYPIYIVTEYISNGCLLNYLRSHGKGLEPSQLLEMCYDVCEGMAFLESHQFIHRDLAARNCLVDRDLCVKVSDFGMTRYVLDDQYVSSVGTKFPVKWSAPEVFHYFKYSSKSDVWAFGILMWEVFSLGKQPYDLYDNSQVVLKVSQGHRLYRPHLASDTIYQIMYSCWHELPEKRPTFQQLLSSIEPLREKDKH
Description: as §1, with “(Invitrogen). The assay and data evaluation were carried out as described ([Bullock et al., 2005])” for “(Invitrogen).”

DYRK2 = biological target: T4, DYRK2 (Homo sapiens, UniProt Q92630); conditions: inhibitor 10 μM; read-out: Tm shift DYRK2
T4 construct: purchased in-house (SGC Oxford thermal shift panel)
T4 sequence (Q92630 1-601): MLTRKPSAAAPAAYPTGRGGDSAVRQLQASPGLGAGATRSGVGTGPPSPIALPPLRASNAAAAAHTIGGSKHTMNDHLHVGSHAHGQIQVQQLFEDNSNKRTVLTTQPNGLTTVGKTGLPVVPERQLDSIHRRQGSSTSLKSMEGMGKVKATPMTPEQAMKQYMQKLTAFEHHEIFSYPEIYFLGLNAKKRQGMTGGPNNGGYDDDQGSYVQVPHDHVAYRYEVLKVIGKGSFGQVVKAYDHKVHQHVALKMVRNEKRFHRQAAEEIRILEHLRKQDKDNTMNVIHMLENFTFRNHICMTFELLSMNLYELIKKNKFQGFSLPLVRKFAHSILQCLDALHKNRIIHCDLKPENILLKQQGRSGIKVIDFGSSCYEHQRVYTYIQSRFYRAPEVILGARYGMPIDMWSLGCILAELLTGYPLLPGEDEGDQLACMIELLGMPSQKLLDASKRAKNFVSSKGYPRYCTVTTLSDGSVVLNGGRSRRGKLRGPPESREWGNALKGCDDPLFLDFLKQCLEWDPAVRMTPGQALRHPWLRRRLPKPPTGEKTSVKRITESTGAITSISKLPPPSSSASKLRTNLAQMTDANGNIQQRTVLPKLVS
Description: as §1

CLK3 = biological target: T5, CLK3 (Homo sapiens, UniProt P49761); conditions: inhibitor 10 μM; read-out: Tm shift CLK3
T5 construct: purchased in-house (SGC Oxford thermal shift panel)
T5 sequence (P49761 whole entry): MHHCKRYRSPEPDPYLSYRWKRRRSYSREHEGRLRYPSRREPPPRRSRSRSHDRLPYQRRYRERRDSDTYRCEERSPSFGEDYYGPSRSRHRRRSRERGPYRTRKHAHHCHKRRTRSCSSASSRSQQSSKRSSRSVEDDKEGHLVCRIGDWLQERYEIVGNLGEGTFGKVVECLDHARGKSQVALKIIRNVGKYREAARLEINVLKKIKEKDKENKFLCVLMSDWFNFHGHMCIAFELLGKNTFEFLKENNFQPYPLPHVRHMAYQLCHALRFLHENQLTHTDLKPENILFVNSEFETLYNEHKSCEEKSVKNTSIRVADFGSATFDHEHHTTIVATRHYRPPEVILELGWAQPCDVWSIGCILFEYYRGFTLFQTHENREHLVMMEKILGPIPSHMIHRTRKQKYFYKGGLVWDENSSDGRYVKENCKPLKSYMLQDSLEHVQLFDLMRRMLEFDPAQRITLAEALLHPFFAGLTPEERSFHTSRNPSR
Description: as §1

CK1e = CK1e (Homo sapiens, UniProt P49674); conditions: inhibitor 10 μM; read-out: Tm shift CK1e
CK1e, sequence (P49674 whole entry): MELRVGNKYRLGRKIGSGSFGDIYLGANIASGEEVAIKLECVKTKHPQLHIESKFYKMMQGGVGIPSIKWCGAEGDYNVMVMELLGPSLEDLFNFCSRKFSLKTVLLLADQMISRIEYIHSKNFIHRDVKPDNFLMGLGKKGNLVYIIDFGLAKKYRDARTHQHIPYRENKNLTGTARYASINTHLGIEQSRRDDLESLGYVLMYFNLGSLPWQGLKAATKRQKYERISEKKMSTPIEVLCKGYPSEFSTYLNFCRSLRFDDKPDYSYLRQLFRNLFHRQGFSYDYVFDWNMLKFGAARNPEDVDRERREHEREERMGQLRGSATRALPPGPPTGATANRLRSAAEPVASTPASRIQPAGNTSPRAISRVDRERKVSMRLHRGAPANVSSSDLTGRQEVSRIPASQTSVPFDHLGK
Description: as §1

CLK2 = CLK2 (Homo sapiens, UniProt P49760); conditions: inhibitor 10 μM; read-out: Tm shift CLK2
CLK2, sequence (P49760 whole entry): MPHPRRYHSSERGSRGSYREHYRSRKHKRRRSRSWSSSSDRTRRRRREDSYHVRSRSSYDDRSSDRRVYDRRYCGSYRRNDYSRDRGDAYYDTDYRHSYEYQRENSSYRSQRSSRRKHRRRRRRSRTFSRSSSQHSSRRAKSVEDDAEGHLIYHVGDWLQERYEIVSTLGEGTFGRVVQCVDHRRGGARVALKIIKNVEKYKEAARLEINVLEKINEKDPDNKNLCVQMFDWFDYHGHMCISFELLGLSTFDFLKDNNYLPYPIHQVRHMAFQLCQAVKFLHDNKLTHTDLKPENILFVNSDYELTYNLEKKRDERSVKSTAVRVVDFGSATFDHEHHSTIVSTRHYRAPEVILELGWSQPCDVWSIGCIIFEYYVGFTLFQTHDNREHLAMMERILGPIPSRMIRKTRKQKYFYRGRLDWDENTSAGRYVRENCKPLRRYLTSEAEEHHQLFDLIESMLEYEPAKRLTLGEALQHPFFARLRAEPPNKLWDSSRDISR
Description: as §1

CLK4 = biological target: T6, CLK4 (Homo sapiens, UniProt Q9HAZ1); conditions: inhibitor 10 μM; read-out: Tm shift CLK4
T6 construct: purchased in-house (SGC Oxford thermal shift panel)
T6 sequence (Q9HAZ1 whole entry): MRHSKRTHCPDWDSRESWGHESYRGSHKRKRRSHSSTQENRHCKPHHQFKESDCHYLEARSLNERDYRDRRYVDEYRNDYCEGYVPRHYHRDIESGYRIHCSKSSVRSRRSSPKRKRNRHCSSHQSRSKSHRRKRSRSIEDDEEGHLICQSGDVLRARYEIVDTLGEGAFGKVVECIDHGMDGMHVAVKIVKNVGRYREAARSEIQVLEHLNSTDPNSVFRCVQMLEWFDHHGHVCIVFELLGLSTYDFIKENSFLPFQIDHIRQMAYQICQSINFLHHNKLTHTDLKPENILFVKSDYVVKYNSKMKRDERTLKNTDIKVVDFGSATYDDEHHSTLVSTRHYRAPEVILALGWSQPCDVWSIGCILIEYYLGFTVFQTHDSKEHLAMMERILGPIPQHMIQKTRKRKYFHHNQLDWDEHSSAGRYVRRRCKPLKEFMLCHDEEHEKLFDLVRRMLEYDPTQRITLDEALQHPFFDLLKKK
Description: as §1

DYRK1A = biological target: T7, DYRK1A (Homo sapiens, UniProt Q13627); conditions: inhibitor 10 μM; read-out: Tm shift DYRK1A
T7 construct: purchased in-house (SGC Oxford thermal shift panel)
Description: as §1

CLK1 = biological target: T8, CLK1 (Homo sapiens, UniProt P49759); conditions: inhibitor 10 μM; read-out: Tm shift CLK1
T8 construct: the kinase domains of human CLK1 (residues: 148–484 (C terminus)); hexahistidine tag (TEV-cleavable) (cleaved yes); made in house; host or cells: E. coli BL21(DE3)
T8 sequence (P49759 148-484): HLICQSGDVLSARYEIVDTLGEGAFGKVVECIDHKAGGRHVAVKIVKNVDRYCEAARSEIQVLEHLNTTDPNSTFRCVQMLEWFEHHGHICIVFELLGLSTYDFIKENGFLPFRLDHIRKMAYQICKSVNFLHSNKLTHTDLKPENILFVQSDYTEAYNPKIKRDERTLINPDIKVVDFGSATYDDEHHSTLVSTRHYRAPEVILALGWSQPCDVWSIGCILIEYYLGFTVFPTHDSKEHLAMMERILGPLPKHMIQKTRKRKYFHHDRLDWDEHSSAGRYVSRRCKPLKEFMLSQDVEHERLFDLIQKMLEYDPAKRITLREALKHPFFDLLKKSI
Description: as §1

CK1g3, sequence (Q9Y6M4 whole entry): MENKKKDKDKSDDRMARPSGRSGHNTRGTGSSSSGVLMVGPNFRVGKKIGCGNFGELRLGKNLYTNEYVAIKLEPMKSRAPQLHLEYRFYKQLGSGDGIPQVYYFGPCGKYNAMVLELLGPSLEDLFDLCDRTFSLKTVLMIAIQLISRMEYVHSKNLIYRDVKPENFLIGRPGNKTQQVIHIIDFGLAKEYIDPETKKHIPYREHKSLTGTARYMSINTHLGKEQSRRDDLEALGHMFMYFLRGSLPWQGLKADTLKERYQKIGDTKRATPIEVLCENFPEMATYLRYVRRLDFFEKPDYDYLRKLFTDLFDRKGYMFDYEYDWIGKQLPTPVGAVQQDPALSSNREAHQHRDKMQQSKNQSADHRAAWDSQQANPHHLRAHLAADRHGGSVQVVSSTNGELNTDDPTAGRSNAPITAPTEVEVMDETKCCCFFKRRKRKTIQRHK

Compound | ΔTm at 10 µM (CK1g3) [°C] | ΔTm at 10 µM (CDK2) [°C] | ΔTm at 10 µM (Erk1) [°C] | ΔTm at 10 µM (PIM1) [°C] | ΔTm at 10 µM (NDR1) [°C] | ΔTm at 10 µM (BMX) [°C] | ΔTm at 10 µM (CK1g3; inhibitor 10 μM) [°C] | ΔTm at 10 µM (CDK2; inhibitor 10 μM) [°C] | ΔTm at 10 µM (DYRK2) [°C] | ΔTm at 10 µM (CLK3) [°C] | ΔTm at 10 µM (Erk1; inhibitor 10 μM) [°C] | ΔTm at 10 µM (CK1e) [°C] | ΔTm at 10 µM (CLK2) [°C] | ΔTm at 10 µM (PIM1; inhibitor 10 μM) [°C] | ΔTm at 10 µM (CLK4) [°C] | ΔTm at 10 µM (DYRK1A) [°C] | ΔTm at 10 µM (CLK1) [°C] | ΔTm at 10 µM (NDR1; inhibitor 10 μM) [°C] | ΔTm at 10 µM (BMX; inhibitor 10 μM) [°C]
CCOC(=O)c1c(C(C#N)=CN)c2ccc(Cl)c(Cl)c2n1C (mixture of isomers) [KH-CB20, (E/Z)-Ethyl 3-(2-Amino-1-Cyanovinyl)-6,7-Dichloro-1-Methyl-1H-Indole-2-Carboxylate] | 0.3 | 0.2 | 0.1 | 3 | 0.3 | 0.2 |  |  |  |  |  |  |  |  |  |  |  |  | 
CCOC(=O)c1c(C(C#N)=CN(C)C)c2ccc(Cl)c(Cl)c2n1C (mixture of isomers) [compound 2, (E/Z)-Ethyl 6,7-Dichloro-3-[1-Cyano-2-(Dimethylamino)Vinyl]-1-Methyl-1H-Indole-2-Carboxylate] |  |  |  |  |  |  | 0.5 | -0.1 | 0.7 | 1.7 | 0.1 | 0.3 | 3 | 2.5 | 4.1 | 0.6 | 5.6 | 0.4 | -0.2
NC1=NC(=O)/C(=C2\CCNC(=O)c3[nH]c(Br)cc32)N1 [Hymenialdisine, hymenialdisine, reference compound] |  |  |  |  |  |  | 3.5 | 1.5 | 0.8 | 7.2 |  | 4.8 | 4.4 | 0.6 | 7 | 4.4 | 7.8 | 1 | -0.1
CCOC(=O)c1c(/C(C#N)=C\N)c2ccc(Cl)c(Cl)c2n1C [KH-CB19, (E)-Ethyl 3-(2-Amino-1-Cyanovinyl)-6,7-Dichloro-1-Methyl-1H-Indole-2-Carboxylate] | 0.1 | 0.2 | -0.3 | 2.9 | 0.2 | 0.2 |  |  |  |  |  |  |  |  |  |  |  |  | 
Cn1c2c(Cl)c(Cl)ccc2c2c(C#N)c[nH]c(=O)c21 [compound 3, 7,8-Dichloro-9-Methyl-1-Oxo-2,9-Dihydro-1H-Pyrido[3,4-b]Indole-4-Carbonitrile] |  |  |  |  |  |  | 0 | 0.4 | 2.1 | 7.9 | -0.5 | 0.9 | 6.3 | 3.4 | 9.6 | 5.1 | 10.9 | 0.7 | -0.1
